What was measured:
Type in all cases: cell-based
Parental (Ba/F3) = assay: Ba/F3 cell proliferation inhibition; conditions: BaF3; 72 hours, Cell Counting Kit-8
Description: (§1) […] lymphocyte cells, Parental (Ba/F3) and T315I-Bcr-Abl (Ba/F3) were seeded in 96-well plates at the density of 1×10^4/90 μL/well. A culture solution containing 9 concentrations (0.015 to 100 μM) of each example compound serially diluted in 3 folds or DMSO (control) were added to the plate ([…]) to a final concentration of 0 to 10 μM. The plate was incubated in a 37° C. CO2 incubator for 72 hours.
(§2) After incubation for 72 hours, the plate treated with the compound was treated with Cell Counting Kit-8 (Dojindo Molecular Technologies, Inc) solution at the concentration of 10 μL/well, and then mixed well. Then, the plate was incubated in a CO2 incubator at 37° C. for 2 hours, and absorbance at 450 nm was measured with a microplate reader. Data were expressed as percentage compared to vehicle treated cells and GI50 values were calculated using GraphPad Prism 5.0 (GraphPad software Inc., San Diego) GraphPad Prism 5.0.

T315I-Bcr-Abl (Ba/F3) = assay: Ba/F3 cell proliferation inhibition; conditions: BaF3; 72 hours, Cell Counting Kit-8
Description: as §1, §2

KOPM28 cells = assay: human CML cell proliferation inhibition; conditions: 72 hours, Cell Counting Kit-8
Description: (§3) In order to evaluate the therapeutic effect of the compound according to the present invention on chronic myelogenous leukemia (CML), the following experiment was performed, and the results are shown in Table 6 below. Inhibitory activity to Bcr-Abl kinase was evaluated through the experiment using TCCS and KOPM28 cells, and inhibitory activity to T315I-Bcr-Abl kinase was evaluated through the experiment using T315I-TCCS and T315I-KOPM28 cells.
(§4) Human chronic myelogenous leukemia (CML) cells used in the experiment were TCCS, T315I-TCCS, KOPM28 and T315I-KOPM28, and the four types of cells were provided by University of Yamanashi.
(§5) Four types of human CML cells were each seeded in 96-well plates at the density of 1×10^4/90 μL/well. A culture solution containing 9 concentrations (0.000256 to 100 μM) of each example compound serially diluted in 5 folds or DMSO (control) were added to the plate (10 μL/well) to a final concentration of 0 to 10 μM. The plate was incubated in a 37° C. CO2 incubator for 72 hours.
as §2, with “8.0” for “5.0”, “Diego).” for “Diego) GraphPad Prism 5.0.”

T315I-TCCS cells = assay: human CML cell proliferation inhibition; conditions: 72 hours, Cell Counting Kit-8
Description: as §3, §4, §5
as §2, with “8.0” for “5.0”, “Diego).” for “Diego) GraphPad Prism 5.0.”

T315I-KOPM28 cells = assay: human CML cell proliferation inhibition; conditions: 72 hours, Cell Counting Kit-8
Description: as §3, §4, §5
as §2, with “8.0” for “5.0”, “Diego).” for “Diego) GraphPad Prism 5.0.”

TCCS cells = assay: human CML cell proliferation inhibition; conditions: 72 hours, Cell Counting Kit-8
Description: as §3, §4, §5
as §2, with “8.0” for “5.0”, “Diego).” for “Diego) GraphPad Prism 5.0.”

Row | Compound | GI50 (Parental (Ba/F3)) [µM] | GI50 (T315I-Bcr-Abl (Ba/F3)) [µM] | GI50 (KOPM28 cells) [µM] | GI50 (T315I-TCCS cells) [µM] | GI50 (T315I-KOPM28 cells) [µM] | GI50 (TCCS cells) [µM]
1 | Cc1cc(F)c(C(=O)Nc2cc(CN3CCC(C(F)(F)F)CC3)cc(C(C)(C)C#N)c2)cc1C#Cc1cnc2c(Nc3cnn(C)c3)cccn12 [Example 31, N-(3-(2-cyanopropan-2-yl)-5-((4-(trifluoromethyl)piperidin-1-yl)methyl)phenyl)-2-fluoro-4-methyl-5-((8-((1-methyl-1H-pyrazol-4-yl)amino)imidazo[1,2-a]pyridin-3-yl)ethynyl)benzamide] | > 5 | 0.05 to 0.5 | < 0.01 | > 0.1 | > 0.1 | < 0.01
2 | Cc1cc(F)c(C(=O)Nc2cc(CN3CCN(CC(F)(F)F)CC3)cc(C(C)(C)C#N)c2)cc1C#Cc1cnc2c(Nc3cnn(C)c3)cccn12 [Example 32, N-(3-(2-cyanopropan-2-yl)-5-((4-(2,2,2-trifluoroethyl)piperazin-1-yl)methyl)phenyl)-2-fluoro-4-methyl-5-((8-((1-methyl-1H-pyrazol-4-yl)amino)imidazo[1,2-a]pyridin-3-yl)ethynyl)benzamide] | > 5 | 0.05 to 0.5 | < 0.01 | > 0.1 | > 0.1 | < 0.01
3 | Cc1cc(F)c(C(=O)Nc2cc(CN3CCN(C(C)C)CC3)cc(C(C)(C)C#N)c2)cc1C#Cc1cnc2c(Nc3cnn(C)c3)cccn12 [Example 33, N-(3-(2-cyanopropan-2-yl)-5-((4-isopropylpiperazin-1-yl)methyl)phenyl)-2-fluoro-4-methyl-5-((8-((1-methyl-1H-pyrazol-4-yl)amino)imidazo[1,2-a]pyridin-3-yl)ethynyl)benzamide] | 0.5 to 5 | 0.05 to 0.5 | < 0.01 | 0.1 | > 0.1 | < 0.01
4 | Cc1cc(F)c(C(=O)Nc2cc(CN3CCN(S(C)(=O)=O)CC3)cc(C(C)(C)C#N)c2)cc1C#Cc1cnc2c(Nc3cnn(C)c3)cccn12 [Example 34, N-(3-(2-cyanopropan-2-yl)-5-((4-(methylsulfonyl)piperazin-1-yl)methyl)phenyl)-2-fluoro-4-methyl-5-((8-((1-methyl-1H-pyrazol-4-yl)amino)imidazo[1,2-a]pyridin-3-yl)ethynyl)benzamide] | > 5 | 0.05 to 0.5 | < 0.01 | 0.1 | > 0.1 | < 0.01
5 | Cc1cc(F)c(C(=O)Nc2cc(CN3CCN(C)C(=O)C3)cc(C(C)(C)C#N)c2)cc1C#Cc1cnc2c(Nc3cnn(C)c3)cccn12 [Example 35, N-(3-(2-cyanopropan-2-yl)-5-((4-methyl-3-oxopiperazin-1-yl)methyl)phenyl)-2-fluoro-4-methyl-5-((8-((1-methyl-1H-pyrazol-4-yl)amino)imidazo[1,2-a]pyridin-3-yl)ethynyl)benzamide] | 0.5 to 5 | 0.05 to 0.5 | < 0.01 | > 0.1 | > 0.1 | < 0.01
6 | Cc1cc(F)c(C(=O)Nc2cc(CN3CC(OC(C)C)C3)cc(C(C)(C)C#N)c2)cc1C#Cc1cnc2c(Nc3cnn(C)c3)cccn12 [Example 36, N-(3-(2-cyanopropan-2-yl)-5-((3-isopropoxyazetidin-1-yl)methyl)phenyl)-2-fluoro-4-methyl-5-((8-((1-methyl-1H-pyrazol-4-yl)amino)imidazo[1,2-a]pyridin-3-yl)ethynyl)benzamide] | > 5 | 0.05 to 0.5 | < 0.01 | 0.1 | 0.1 | < 0.01
7 | Cc1cc(F)c(C(=O)Nc2cc(Cn3ccnc3)cc(C(C)(C)C#N)c2)cc1C#Cc1cnc2c(Nc3cnn(C)c3)cccn12 [Example 37, N-(3-((1H-imidazol-1-yl)methyl)-5-(2-cyanopropan-2-yl)phenyl)-2-fluoro-4-methyl-5-((8-((1-methyl-1H-pyrazol-4-yl)amino)imidazo[1,2-a]pyridin-3-yl)ethynyl)benzamide] | > 5 | 0.05 to 0.5 | < 0.01 | 0.1 | 0.1 | < 0.01
8 | Cc1cc(F)c(C(=O)Nc2cc(Cn3cncn3)cc(C(C)(C)C#N)c2)cc1C#Cc1cnc2c(Nc3cnn(C)c3)cccn12 [Example 38, N-(3-((1H-1,2,4-triazol-1-yl)methyl)-5-(2-cyanopropan-2-yl)phenyl)-2-fluoro-4-methyl-5-((8-((1-methyl-1H-pyrazol-4-yl)amino)imidazo[1,2-a]pyridin-3-yl)ethynyl)benzamide] | > 5 | < 0.05 | < 0.01 | < 0.01 | 0.1 | < 0.01
9 | Cc1cc(F)c(C(=O)Nc2ccc(CN3CCN(C)CC3)c(C(C)(C)C#N)c2)cc1C#Cc1cnc2c(Nc3cnn(C)c3)cccn12 [Example 39, N-(3-(2-cyanopropan-2-yl)-4-((4-methylpiperazin-1-yl)methyl)phenyl)-2-fluoro-4-methyl-5-((8-((1-methyl-1H-pyrazol-4-yl)amino)imidazo[1,2-a]pyridin-3-yl)ethynyl)benzamide] | > 5 | < 0.05 | < 0.01 | 0.1 | 0.1 | < 0.01
10 | Cc1cc(F)c(C(=O)Nc2ccc(CN3CCOCC3)c(C(C)(C)C#N)c2)cc1C#Cc1cnc2c(Nc3cnn(C)c3)cccn12 [Example 40, N-(3-(2-cyanopropan-2-yl)-4-(morpholinomethyl)phenyl)-2-fluoro-4-methyl-5-((8-((1-methyl-1H-pyrazol-4-yl)amino)imidazo[1,2-a]pyridin-3-yl)ethynyl)benzamide] | > 5 | 0.05 to 0.5 | < 0.01 | > 0.1 | > 0.1 | < 0.01
11 | Cc1cc(F)c(C(=O)Nc2ccc(CN3CCC(N(C)C)C3)c(C(C)(C)C#N)c2)cc1C#Cc1cnc2c(Nc3cnn(C)c3)cccn12 (stereo not drawn) [Example 41, N-(3-(2-cyanopropan-2-yl)-4-((3-(dimethylamino)pyrrolidin-1-yl)methyl)phenyl)-2-fluoro-4-methyl-5-((8-((1-methyl-1H-pyrazol-4-yl)amino)imidazo[1,2-a]pyridin-3-yl)ethynyl)benzamide] | 0.5 to 5 | 0.05 to 0.5 | < 0.01 | > 0.1 | > 0.1 | < 0.01
12 | Cc1cc(F)c(C(=O)Nc2ccc(CN3CCCN(C)CC3)c(C(C)(C)C#N)c2)cc1C#Cc1cnc2c(Nc3cnn(C)c3)cccn12 [Example 42, N-(3-(2-cyanopropan-2-yl)-4-((4-methyl-1,4-diazepan-1-yl)methyl)phenyl)-2-fluoro-4-methyl-5-((8-((1-methyl-1H-pyrazol-4-yl)amino)imidazo[1,2-a]pyridin-3-yl)ethynyl)benzamide] | 0.5 to 5 | 0.05 to 0.5 | < 0.01 | 0.1 | > 0.1 | < 0.01
13 | Cc1cc(F)c(C(=O)Nc2ccc(CN3CCN(CCO)CC3)c(C(C)(C)C#N)c2)cc1C#Cc1cnc2c(Nc3cnn(C)c3)cccn12 [Example 43, N-(3-(2-cyanopropan-2-yl)-4-((4-(2-hydroxyethyl)piperazin-1-yl)methyl)phenyl)-2-fluoro-4-methyl-5-((8-((1-methyl-1H-pyrazol-4-yl)amino)imidazo[1,2-a]pyridin-3-yl)ethynyl)benzamide] | 0.5 to 5 | 0.05 to 0.5 | < 0.01 | 0.1 | > 0.1 | < 0.01
14 | Cc1cc(F)c(C(=O)Nc2ccc(CN3CCN(C)C(=O)C3)c(C(C)(C)C#N)c2)cc1C#Cc1cnc2c(Nc3cnn(C)c3)cccn12 [Example 44, N-(3-(2-cyanopropan-2-yl)-4-((4-methyl-3-oxopiperazin-1-yl)methyl)phenyl)-2-fluoro-4-methyl-5-((8-((1-methyl-1H-pyrazol-4-yl)amino)imidazo[1,2-a]pyridin-3-yl)ethynyl)benzamide] | 0.5 to 5 | 0.05 to 0.5 | < 0.01 | > 0.1 | > 0.1 | < 0.01

— patent US12673945B2, “3-((8-((1H-pyrazol-4-yl)amino)imidazo[1,2-a]pyridin-3-yl)ethinyl)-n-phenylbenzamide derivative, method for preparing same, and pharmaceutical composition containing same as active ingredient for prevention or treatment of cancer” (DAEGU-GYEONGBUK MEDICAL INNOVATION FOUNDATION, priority 2020, dated 2026)
